Measurements reported in patent US11419869B2, “Dosage forms and regimens for amino acid compounds” (Pliant Therapeutics, Inc., priority 2019, dated 2022).

Each compound was assayed against recombinant human integrin αvβ6 (Homo sapiens (Human), UniProt P06756+P18564) (assay: Solid Phase Integrin αvβ6 Binding Assay (Examples B1, B2)). Conditions: TGFβ1 LAP ligand, values given in four ranges, read-out: αvβ6 Inhibition IC50 (nM)-range.
Sequence of recombinant human integrin αvβ6 (P06756 31-992): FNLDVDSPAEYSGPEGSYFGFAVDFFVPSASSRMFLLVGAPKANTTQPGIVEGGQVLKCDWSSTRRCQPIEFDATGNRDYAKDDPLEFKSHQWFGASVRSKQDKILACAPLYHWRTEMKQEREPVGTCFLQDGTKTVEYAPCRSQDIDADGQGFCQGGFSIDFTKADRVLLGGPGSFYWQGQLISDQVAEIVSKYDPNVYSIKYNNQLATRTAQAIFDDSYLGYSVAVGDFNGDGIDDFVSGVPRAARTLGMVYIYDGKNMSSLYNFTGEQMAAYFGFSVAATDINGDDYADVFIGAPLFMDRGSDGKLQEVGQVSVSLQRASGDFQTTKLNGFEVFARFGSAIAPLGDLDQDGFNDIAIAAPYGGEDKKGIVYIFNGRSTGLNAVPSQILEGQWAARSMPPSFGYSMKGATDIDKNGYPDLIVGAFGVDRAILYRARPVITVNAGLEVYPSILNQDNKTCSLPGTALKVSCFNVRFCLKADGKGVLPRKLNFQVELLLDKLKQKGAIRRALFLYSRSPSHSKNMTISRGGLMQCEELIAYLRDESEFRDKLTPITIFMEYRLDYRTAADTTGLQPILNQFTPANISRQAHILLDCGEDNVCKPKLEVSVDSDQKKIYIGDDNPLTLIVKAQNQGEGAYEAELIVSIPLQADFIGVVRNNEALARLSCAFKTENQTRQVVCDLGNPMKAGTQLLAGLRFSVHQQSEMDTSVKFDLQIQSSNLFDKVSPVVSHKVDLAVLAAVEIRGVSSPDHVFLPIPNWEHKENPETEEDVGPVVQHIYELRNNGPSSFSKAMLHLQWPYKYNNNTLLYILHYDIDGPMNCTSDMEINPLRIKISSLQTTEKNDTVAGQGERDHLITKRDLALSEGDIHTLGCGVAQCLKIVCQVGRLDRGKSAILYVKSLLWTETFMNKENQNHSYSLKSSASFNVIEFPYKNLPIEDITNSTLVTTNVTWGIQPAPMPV
Sequence of recombinant human integrin αvβ6 (P18564 22-707): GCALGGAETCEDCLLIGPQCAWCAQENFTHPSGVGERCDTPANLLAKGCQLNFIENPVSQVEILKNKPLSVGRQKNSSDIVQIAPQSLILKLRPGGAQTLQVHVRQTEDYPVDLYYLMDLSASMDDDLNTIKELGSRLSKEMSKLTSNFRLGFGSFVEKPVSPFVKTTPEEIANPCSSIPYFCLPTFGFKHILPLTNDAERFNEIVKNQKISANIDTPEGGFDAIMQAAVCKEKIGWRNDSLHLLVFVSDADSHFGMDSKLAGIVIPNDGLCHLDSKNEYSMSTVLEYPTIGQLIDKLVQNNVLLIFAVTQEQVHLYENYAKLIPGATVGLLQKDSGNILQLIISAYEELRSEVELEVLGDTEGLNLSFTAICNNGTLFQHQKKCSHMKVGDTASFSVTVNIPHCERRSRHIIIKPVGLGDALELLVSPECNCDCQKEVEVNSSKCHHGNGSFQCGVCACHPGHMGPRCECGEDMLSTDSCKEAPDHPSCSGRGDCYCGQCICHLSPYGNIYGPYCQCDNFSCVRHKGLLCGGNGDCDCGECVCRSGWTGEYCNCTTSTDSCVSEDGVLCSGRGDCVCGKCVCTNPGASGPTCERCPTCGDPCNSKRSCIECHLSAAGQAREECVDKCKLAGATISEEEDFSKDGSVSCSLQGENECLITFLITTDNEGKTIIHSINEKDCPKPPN
Outline: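 Plates coated with recombinant human αvβ6 (2 μg/mL) compete compound against recombinant TGFβ1 LAP (0.67 μg/mL) in TBS binding buffer with 0.5 mM MnCl2, 2 h at 25 °C. Bound LAP detected with biotin-anti-hLAP and peroxidase-streptavidin; IC50 by four-parameter logistic regression.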
With `O=C(O)[C@H](CCN(CCCCc1ccc2c(n1)NCCC2)CC(F)F)Nc1ncc(Br)cn1` [Compound 96, (S)-2-((5-bromopyrimidin-2-yl)amino)-4-((2,2-difluoroethyl) (4-(5,6,7,8-tetrahydro-1,8-naphthyridin-2-yl)butyl)amino) butanoic acid] the IC50 was > 1000 nM.
`O=C(O)[C@H](CCN(CCCCc1ccc2c(n1)NCCC2)CC(F)F)Nc1ccnc(C(F)(F)F)n1` [Compound 97, (S)-4-((2,2-difluoroethyl) (4-(5,6,7,8-tetrahydro-1,8-naphthyridin-2-yl)butyl)amino)-2-((2-(trifluoromethyl)pyrimidin-4-yl)amino) butanoic acid] was tested, and the IC50 was > 1000 nM.
With `O=C(O)[C@H](CCN(CCCCc1ccc2c(n1)NCCC2)CC(F)F)Nc1cc(-n2cccn2)ncn1` [Compound 98, (S)-2-((6-(1H-pyrazol-1-yl)pyrimidin-4-yl)amino)-4-((2,2-difluoroethyl) (4-(5,6,7,8-tetrahydro-1,8-naphthyridin-2-yl)butyl)amino) butanoic acid] the IC50 was > 1000 nM.
`CO[C@H](C)CN(CCCCc1ccc2c(n1)NCCC2)CC[C@H](Nc1nc(-c2cccnc2)nc2ccccc12)C(=O)O` [Compound 100, (S)-4-(((R)-2-methoxypropyl) (4-(5,6,7,8-tetrahydro-1,8-naphthyridin-2-yl)butyl)amino)-2-((2-(pyridin-3-yl)quinazolin-4-yl)amino) butanoic acid] was tested, and the IC50 was < 50 nM.
With `CS(=O)(=O)CCN(CCCCc1ccc2c(n1)NCCC2)CC[C@H](Nc1ncc(C(F)(F)F)cn1)C(=O)O` [Compound 102, (S)-4-((2-(methylsulfonyl)ethyl) (4-(5,6,7,8-tetrahydro-1,8-naphthyridin-2-yl)butyl)amino)-2-((5-(trifluoromethyl)pyrimidin-2-yl)amino) butanoic acid] the IC50 was > 1000 nM.
For `CS(=O)(=O)CCN(CCCCc1ccc2c(n1)NCCC2)CC[C@H](Nc1ncc(Br)cn1)C(=O)O` [Compound 103, (S)-2-((5-bromopyrimidin-2-yl)amino)-4-((2-(methylsulfonyl)ethyl) (4-(5,6,7,8-tetrahydro-1,8-naphthyridin-2-yl)butyl)amino) butanoic acid], the IC50 was > 1000 nM.
`CS(=O)(=O)CCN(CCCCc1ccc2c(n1)NCCC2)CC[C@H](Nc1ccnc(C(F)(F)F)n1)C(=O)O` [Compound 104, (S)-4-((2-(methylsulfonyl)ethyl) (4-(5,6,7,8-tetrahydro-1,8-naphthyridin-2-yl)butyl)amino)-2-((2-(trifluoromethyl)pyrimidin-4-yl)amino) butanoic acid] was tested, and the IC50 was > 1000 nM.
`COC[C@@H](F)CN(CCCCc1ccc2c(n1)NCCC2)CC[C@H](Nc1ncnc2c1cnn2C)C(=O)O` [Compound 105, (S)-4-(((S)-2-fluoro-3-methoxypropyl) (4-(5,6,7,8-tetrahydro-1,8-naphthyridin-2-yl)butyl)amino)-2-((1-methyl-1H-pyrazolo[3,4-d]pyrimidin-4-yl)amino) butanoic acid] was tested, and the IC50 was < 50 nM.
With `CO[C@H](C)CN(CCCCc1ccc2c(n1)NCCC2)CC[C@H](Nc1ccncn1)C(=O)O` [Compound 106, (S)-4-(((R)-2-methoxypropyl) (4-(5,6,7,8-tetrahydro-1,8-naphthyridin-2-yl)butyl)amino)-2-(pyrimidin-4-ylamino) butanoic acid] the IC50 was < 50 nM.
Compound `CS(=O)(=O)CCN(CCCCc1ccc2c(n1)NCCC2)CC[C@H](Nc1nc(-c2cccnc2)nc2ccccc12)C(=O)O` [Compound 107, (S)-4-((2-(methylsufonyl)ethyl) (4-(5,6,7,8-tetrahydro-1,8-naphthyridin-2-yl)butyl)amino)-2-((2-(pyridin-3-yl)quinazolin-4-yl)amino) butanoic acid] has an IC50 of 250 to 1000 nM.
`COC[C@@H](F)CN(CCCCc1ccc2c(n1)NCCC2)CC[C@H](Nc1cc(-n2cccn2)ncn1)C(=O)O` [Compound 108, (S)-2-((6-(1H-pyrazol-1-yl)pyrimidin-4-yl)amino)-4-(((S)-2-fluoro-3-methoxypropyl) (4-(5,6,7,8-tetrahydro-1,8-naphthyridin-2-yl)butyl)amino) butanoic acid] was tested, and the IC50 was > 1000 nM.
With `COC[C@@H](F)CN(CCCCc1ccc2c(n1)NCCC2)CC[C@H](Nc1nc(-c2cccnc2)nc2ccccc12)C(=O)O` [Compound 109, (S)-4-(((S)-2-fluoro-3-methoxypropyl) (4-(5,6,7,8-tetrahydro-1,8-naphthyridin-2-yl)butyl)amino)-2-((2-(pyridin-3-yl)quinazolin-4-yl)amino) butanoic acid] the IC50 was < 50 nM.
`COC[C@@H](F)CN(CCCCc1ccc2c(n1)NCCC2)CC[C@H](Nc1ncncc1-c1ccccc1)C(=O)O` [Compound 110, (S)-4-(((S)-2-fluoro-3-methoxypropyl) (4-(5,6,7,8-tetrahydro-1,8-naphthyridin-2-yl)butyl)amino)-2-((5-phenylpyrimidin-4-yl)amino) butanoic acid] was tested, and the IC50 was < 50 nM.
`N#Cc1cnc(N[C@@H](CCN(CCCCc2ccc3c(n2)NCCC3)CCOc2ccccc2)C(=O)O)nc1` [Compound 111, (S)-2-((5-cyanopyrimidin-2-yl)amino)-4-((2-phenoxyethyl) (4-(5,6,7,8-tetrahydro-1,8-naphthyridin-2-yl)butyl)amino) butanoic acid] was tested, and the IC50 was < 50 nM.
`O=C(O)[C@H](CCN(CCCCc1ccc2c(n1)NCCC2)C1CC1)Nc1ncc(C(F)(F)F)cn1` [Compound 114, (S)-4-(cyclopropyl(4-(5,6,7,8-tetrahydro-1,8-naphthyridin-2-yl)butyl)amino)-2-((5-(trifluoromethyl)pyrimidin-2-yl)amino) butanoic acid] was tested, and the IC50 was < 50 nM.
`O=C(O)[C@H](CCN(CCCCc1ccc2c(n1)NCCC2)CCOc1ccccc1)Nc1ncc(C2CC2)cn1` [Compound 117, (S)-2-((5-cyclopropylpyrimidin-2-yl)amino)-4-((2-phenoxyethyl) (4-(5,6,7,8-tetrahydro-1,8-naphthyridin-2-yl)butyl)amino) butanoic acid] was tested, and the IC50 was < 50 nM.
With `N#Cc1cnc(N[C@@H](CCN(CCCCc2ccc3c(n2)NCCC3)CC(F)F)C(=O)O)nc1` [Compound 118, (S)-2-((5-cyanopyrimidin-2-yl)amino)-4-((2,2-difluoroethyl) (4-(5,6,7,8-tetrahydro-1,8-naphthyridin-2-yl)butyl)amino) butanoic acid] the IC50 was > 1000 nM.
In the case of `O=C(O)[C@H](CCN(CCCCc1ccc2c(n1)NCCC2)CC(F)F)Nc1ncncc1-c1ccccc1` [Compound 119, (S)-4-((2,2-difluoroethyl) (4-(5,6,7,8-tetrahydro-1,8-naphthyridin-2-yl)butyl)amino)-2-((5-phenylpyrimidin-4-yl)amino) butanoic acid], the IC50 is reported as > 1000 nM.
For `O=C(O)[C@H](CCN(CCCCc1ccc2c(n1)NCCC2)CC(F)F)Nc1ccncn1` [Compound 120, (S)-4-((2,2-difluoroethyl) (4-(5,6,7,8-tetrahydro-1,8-naphthyridin-2-yl)butyl)amino)-2-(pyrimidin-4-ylamino) butanoic acid], the IC50 was > 1000 nM.
`O=C(O)[C@H](CCN(CCCCc1ccc2c(n1)NCCC2)CC(F)F)Nc1ncc(F)cn1` [Compound 121, (S)-4-((2,2-difluoroethyl) (4-(5,6,7,8-tetrahydro-1,8-naphthyridin-2-yl)butyl)amino)-2-((5-fluoropyrimidin-2-yl)amino) butanoic acid] was tested, and the IC50 was > 1000 nM.
`Cn1ncc2c(N[C@@H](CCN(CCCCc3ccc4c(n3)NCCC4)CCOc3ccc(F)cc3)C(=O)O)ncnc21` [Compound 123, (S)-4-((2-(4-fluorophenoxy)ethyl) (4-(5,6,7,8-tetrahydro-1,8-naphthyridin-2-yl)butyl)amino)-2-((1-methyl-1H-pyrazolo[3,4-d]pyrimidin-4-yl)amino) butanoic acid] was tested, and the IC50 was < 50 nM.
For `CO[C@H](C)CN(CCCCc1ccc2c(n1)NCCC2)CC[C@H](Nc1ncc(C2CC2)cn1)C(=O)O` [Compound 124, (S)-2-((5-cyclopropylpyrimidin-2-yl)amino)-4-(((R)-2-methoxypropyl) (4-(5,6,7,8-tetrahydro-1,8-naphthyridin-2-yl)butyl)amino) butanoic acid], the IC50 was < 50 nM.
In the case of `CS(=O)(=O)CCN(CCCCc1ccc2c(n1)NCCC2)CC[C@H](Nc1cc(-n2cccn2)ncn1)C(=O)O` [Compound 126, (S)-2-((6-(1H-pyrazol-1-yl)pyrimidin-4-yl)amino)-4-((2-(methylsulfonyl)ethyl) (4-(5,6,7,8-tetrahydro-1,8-naphthyridin-2-yl)butyl)amino) butanoic acid], the IC50 is reported as > 1000 nM.
In the case of `COC[C@@H](F)CN(CCCCc1ccc2c(n1)NCCC2)CC[C@H](Nc1cc(-c2ccccc2)ncn1)C(=O)O` [Compound 128, (S)-4-(((S)-2-fluoro-3-methoxypropyl) (4-(5,6,7,8-tetrahydro-1,8-naphthyridin-2-yl)butyl)amino)-2-((6-phenylpyrimidin-4-yl)amino) butanoic acid], the IC50 is reported as > 1000 nM.
With `O=C(O)[C@H](CCN(CCCCc1ccc2c(n1)NCCC2)CC1CCO1)Nc1ncnc2ccccc12` (stereo partly drawn) [Compound 129, (2S)-4-((oxetan-2-ylmethyl) (4-(5,6,7,8-tetrahydro-1,8-naphthyridin-2-yl)butyl)amino)-2-(quinazolin-4-ylamino) butanoic acid] the IC50 was < 50 nM.
For `O=C(O)[C@H](CCN(CCCCc1ccc2c(n1)NCCC2)CC(CO)CO)Nc1ncnc2ccccc12` [Compound 130, (S)-4-((3-hydroxy-2-(hydroxymethyl)propyl) (4-(5,6,7,8-tetrahydro-1,8-naphthyridin-2-yl)butyl)amino)-2-(quinazolin-4-ylamino) butanoic acid], the IC50 was < 50 nM.
`Cn1ncc2c(N[C@@H](CCN(CCCF)CCCCc3ccc4c(n3)NCCC4)C(=O)O)ncnc21` [Compound 136, (S)-4-((3-fluoropropyl) (4-(5,6,7,8-tetrahydro-1,8-naphthyridin-2-yl)butyl)amino)-2-((1-methyl-1H-pyrazolo[3,4-d]pyrimidin-4-yl)amino) butanoic acid] was tested, and the IC50 was < 50 nM.
